Reference: US9708314B2, “Heterocyclic amide compound” (NISSAN CHEMICAL INDUSTRIES, LTD., priority 2013, dated 2017)

Assays:
Format in all cases: in vivo
[1] = tested on: Beta vulgaris ssp. vulgaris; assay: Test Example 4: effect on crop by application to foliage (diluvial soil, plastic box); conditions: application to foliage, application herbicide amount 320 g/ha
Method in brief: (§1)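 Greenhouse plants (25° C. to 30° C., 14 d, diluvial soil) receive a foliar spray of water-diluted emulsifiable formulation at defined g/ha. Grading after 3 weeks uses a six-step herbicidal-ratio scale, with 4 covering 70% to <90% and 1 covering 5% to <20%.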

[2] = tested on: directly sowed Oryza sativa; assay: as above; conditions: application to foliage, application herbicide amount 320 g/ha
Method in brief: as §1

[3] = tested on: Brassica campestris L.; assay: as above; conditions: application to foliage, application herbicide amount 320 g/ha
Method in brief: as §1

[4] = tested on: Zea mays; assay: as above; conditions: application to foliage, application herbicide amount 320 g/ha
Method in brief: as §1

[5] = tested on: Glycine max; assay: as above; conditions: application to foliage, application herbicide amount 320 g/ha
Method in brief: as §1

[6] = tested on: Triticum aestivum; assay: as above; conditions: application to foliage, application herbicide amount 320 g/ha
Method in brief: as §1

[7] = tested on: Alopecurus myosuroides; assay: Test Example 4: herbicidal effect by application to foliage (diluvial soil, plastic box); conditions: application to foliage, application herbicide amount 320 g/ha
Method in brief: as §1

[8] = tested on: Chenopodium album; assay: as above; conditions: application to foliage, application herbicide amount 320 g/ha
Method in brief: as §1

[9] = tested on: Veronica persica; assay: as above; conditions: application to foliage, application herbicide amount 320 g/ha
Method in brief: as §1

[10] = tested on: Avena fatua; assay: as above; conditions: application to foliage, application herbicide amount 320 g/ha
Method in brief: as §1

[11] = tested on: Lolium multiflorum Lam.; assay: as above; conditions: application to foliage, application herbicide amount 320 g/ha
Method in brief: as §1

[12] = tested on: Amaranthus retroflexus; assay: as above; conditions: application to foliage, application herbicide amount 320 g/ha
Method in brief: as §1

[13] = tested on: Echinochloa crus-galli var. crus-galli; assay: as above; conditions: application to foliage, application herbicide amount 320 g/ha
Method in brief: as §1

[14] = tested on: Galium spurium; assay: as above; conditions: application to foliage, application herbicide amount 320 g/ha
Method in brief: as §1

[15] = tested on: Abutilon theophrasti; assay: as above; conditions: application to foliage, application herbicide amount 320 g/ha
Method in brief: as §1

[16] = tested on: Digitaria ciliaris; assay: as above; conditions: application to foliage, application herbicide amount 320 g/ha
Method in brief: as §1

[17] = tested on: Apera spica-venti.; assay: as above; conditions: application to foliage, application herbicide amount 320 g/ha
Method in brief: as §1

[18] = tested on: Setaria viridis; assay: as above; conditions: application to foliage, application herbicide amount 320 g/ha
Method in brief: as §1

[19] = tested on: Stellaria media; assay: as above; conditions: application to foliage, application herbicide amount 320 g/ha
Method in brief: as §1

[20] = tested on: Leptochloa chinensis; assay: Test Example 3: herbicidal effect by application to foliage (Wagner pot, water depth 0.1-0.5 cm); conditions: Nineteenth Table; application to foliage; application herbicide amount 320 g/ha
Method in brief: (§2)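 Post-emergence foliar application at a stated g/ha rate to plants grown 14 days from seed in alluvial soil, greenhouse 25–30 °C. Visual score after 3 weeks: 0 (≤5% effect) through 5 (≥90%).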

[21] = tested on: Echinochloa crus-galli var. crus-galli; assay: as above; conditions: Nineteenth Table; application to foliage; application herbicide amount 320 g/ha
Method in brief: as §2

Row | SMILES | f: effect on crop, Beta vulgaris ssp. vulgaris [1] | b: effect on crop, directly sowed Oryza sativa [2] | g: effect on crop, Brassica campestris L. [3] | c: effect on crop, Zea mays [4] | d: effect on crop, Glycine max [5] | e: effect on crop, Triticum aestivum [6] | J: herbicidal effect on Alopecurus myosuroides [7] | O: herbicidal effect on Chenopodium album [8] | I: herbicidal effect on Avena fatua [10] | K: herbicidal effect on Lolium multiflorum Lam. [11] | N: herbicidal effect on Amaranthus retroflexus [12] | H: herbicidal effect on Echinochloa crus-galli var. crus-galli [13] | Q: herbicidal effect on Galium spurium [14] | M: herbicidal effect on Abutilon theophrasti [15] | F: herbicidal effect on Digitaria ciliaris [16] | L: herbicidal effect on Apera spica-venti. [17] | G: herbicidal effect on Setaria viridis [18] | P: herbicidal effect on Stellaria media [19] | D (herbicidal effect grade) [20] | H (herbicidal effect grade) [21] | further results
1 | C=CCc1nnc2c(C(=O)Nc3nnco3)ccc(C(F)(F)F)n12 [1-158] | 5 (Herbicidal ratio of 90% or more (almost completely withered)) | 0 (Herbicidal ratio of 5% or less (almost no effect)) | 3 (Herbicidal ratio of 40% or more and less than 70%) | 0 (Herbicidal ratio of 5% or less (almost no effect)) | 4 (Herbicidal ratio of 70% or more and less than 90%) | 2 (Herbicidal ratio of 20% or more and less than 40%) | 1 (Herbicidal ratio of 5% or more and less than 20%) | 5 (Herbicidal ratio of 90% or more (almost completely withered)) | 3 (Herbicidal ratio of 40% or more and less than 70%) | 2 (Herbicidal ratio of 20% or more and less than 40%) | 4 (Herbicidal ratio of 70% or more and less than 90%) | 5 (Herbicidal ratio of 90% or more (almost completely withered)) | 3 (Herbicidal ratio of 40% or more and less than 70%) | 4 (Herbicidal ratio of 70% or more and less than 90%) | 5 (Herbicidal ratio of 90% or more (almost completely withered)) | 3 (Herbicidal ratio of 40% or more and less than 70%) | 4 (Herbicidal ratio of 70% or more and less than 90%) | 5 (Herbicidal ratio of 90% or more (almost completely withered)) | 4 (Herbicidal ratio of 70% or more and less than 90%) | 5 (Herbicidal ratio of 90% or more (almost completely withered)) | R: herbicidal effect on Veronica persica [9]: 4 (Herbicidal ratio of 70% or more and less than 90%)
2 | Cc1nnc(NC(=O)c2ccc(C(F)(F)F)n3c(CC(F)(F)F)nnc23)o1 [1-162] | 3 (Herbicidal ratio of 40% or more and less than 70%) | 0 (Herbicidal ratio of 5% or less (almost no effect)) | 1 (Herbicidal ratio of 5% or more and less than 20%) | 0 (Herbicidal ratio of 5% or less (almost no effect)) | 3 (Herbicidal ratio of 40% or more and less than 70%) | 0 (Herbicidal ratio of 5% or less (almost no effect)) | 1 (Herbicidal ratio of 5% or more and less than 20%) | 4 (Herbicidal ratio of 70% or more and less than 90%) | 1 (Herbicidal ratio of 5% or more and less than 20%) | 1 (Herbicidal ratio of 5% or more and less than 20%) | 4 (Herbicidal ratio of 70% or more and less than 90%) | 4 (Herbicidal ratio of 70% or more and less than 90%) | 2 (Herbicidal ratio of 20% or more and less than 40%) | 3 (Herbicidal ratio of 40% or more and less than 70%) | 3 (Herbicidal ratio of 40% or more and less than 70%) | 0 (Herbicidal ratio of 5% or less (almost no effect)) | 1 (Herbicidal ratio of 5% or more and less than 20%) | 3 (Herbicidal ratio of 40% or more and less than 70%) | 4 (Herbicidal ratio of 70% or more and less than 90%) | 4 (Herbicidal ratio of 70% or more and less than 90%) | R: herbicidal effect on Veronica persica [9]: 3 (Herbicidal ratio of 40% or more and less than 70%)
3 | C#CCN(C)c1nnc2c(C(=O)Nc3nnco3)ccc(C(F)(F)F)n12 [1-163] | 4 (Herbicidal ratio of 70% or more and less than 90%) | 0 (Herbicidal ratio of 5% or less (almost no effect)) | 3 (Herbicidal ratio of 40% or more and less than 70%) | 0 (Herbicidal ratio of 5% or less (almost no effect)) | 4 (Herbicidal ratio of 70% or more and less than 90%) | 1 (Herbicidal ratio of 5% or more and less than 20%) | 1 (Herbicidal ratio of 5% or more and less than 20%) | 5 (Herbicidal ratio of 90% or more (almost completely withered)) | 2 (Herbicidal ratio of 20% or more and less than 40%) | 1 (Herbicidal ratio of 5% or more and less than 20%) | 4 (Herbicidal ratio of 70% or more and less than 90%) | 5 (Herbicidal ratio of 90% or more (almost completely withered)) | 3 (Herbicidal ratio of 40% or more and less than 70%) | 4 (Herbicidal ratio of 70% or more and less than 90%) | 4 (Herbicidal ratio of 70% or more and less than 90%) | 1 (Herbicidal ratio of 5% or more and less than 20%) | 3 (Herbicidal ratio of 40% or more and less than 70%) | 4 (Herbicidal ratio of 70% or more and less than 90%) | 5 (Herbicidal ratio of 90% or more (almost completely withered)) | 5 (Herbicidal ratio of 90% or more (almost completely withered)) | R: herbicidal effect on Veronica persica [9]: 2 (Herbicidal ratio of 20% or more and less than 40%)
4 | C=CCN(C)c1nnc2c(C(=O)Nc3nnc(C)o3)ccc(C(F)(F)F)n12 [1-166] | 5 (Herbicidal ratio of 90% or more (almost completely withered)) | 0 (Herbicidal ratio of 5% or less (almost no effect)) | 4 (Herbicidal ratio of 70% or more and less than 90%) | 0 (Herbicidal ratio of 5% or less (almost no effect)) | 4 (Herbicidal ratio of 70% or more and less than 90%) | 0 (Herbicidal ratio of 5% or less (almost no effect)) | 0 (Herbicidal ratio of 5% or less (almost no effect)) | 5 (Herbicidal ratio of 90% or more (almost completely withered)) | 1 (Herbicidal ratio of 5% or more and less than 20%) | 1 (Herbicidal ratio of 5% or more and less than 20%) | 4 (Herbicidal ratio of 70% or more and less than 90%) | 5 (Herbicidal ratio of 90% or more (almost completely withered)) | 1 (Herbicidal ratio of 5% or more and less than 20%) | 3 (Herbicidal ratio of 40% or more and less than 70%) | 5 (Herbicidal ratio of 90% or more (almost completely withered)) | 1 (Herbicidal ratio of 5% or more and less than 20%) | 4 (Herbicidal ratio of 70% or more and less than 90%) | 4 (Herbicidal ratio of 70% or more and less than 90%) | 3 (Herbicidal ratio of 40% or more and less than 70%) | 4 (Herbicidal ratio of 70% or more and less than 90%) | –
